Data set [1] relates to Staphylococcus aureus. As to the kind of experiment: Antibacterial activity against methicillin-resistant Staphylococcus aureus after 16 hrs by agar dilution method. It is filed as functional. On the technique in general: Agar dilution tests growth on a series of plates holding different concentrations.
Data set [2] deals with Staphylococcus aureus. As to the kind of experiment: Antibacterial activity against Staphylococcus aureus ATCC 29213 after 16 hrs by agar dilution method. The settings on record: ATCC 29213, 16 h. The data set is classed as functional.
Data set [3] relates to Staphylococcus aureus. As to the kind of experiment: Antibacterial activity against methicillin-sensitive Staphylococcus aureus after 16 hrs by agar dilution method. It is filed as functional.
A short description of data set [4]: Stability of the compound in LB agar after 16 hrs by UPLC analysis. It is filed as physicochemical.
For data set [5], the system named is Escherichia coli. As to the kind of experiment: Antibacterial activity against Escherichia coli after 16 hrs by agar dilution method. It is filed as functional.
The subject of data set [6] is Klebsiella pneumoniae. The data set is described as follows: Antibacterial activity against Klebsiella pneumoniae after 16 hrs by agar dilution method. The data set is classed as functional.

SMILES strings stand for the structures. Values after ≈ are worked out from the molar mass of the structure shown.

In the case of `C=C1C[C@@]23C=CC(=O)[C@@](C)(CCC(=O)Nc4c(O)ccc(C(=O)O)c4O)[C@@H]2C[C@@H]1CC3` [PLATENCIN], the minimal inhibitory concentration (MIC) in data set [1], in data set [2] and in data set [3] was 1 µg/mL (≈ 2.35 µM) throughout.

Regarding `CC(C)(C)OC(=O)N/N=C1\C=C[C@]23C[C@H]4C[C@H](O[C@@]4(C)C2)[C@H]3[C@]1(C)CCC(=O)Nc1c(O)ccc(C(=O)O)c1O`, the minimum inhibitory concentration (MIC) in data set [3] is 16 µg/mL (≈ 28.8 µM); in data set [5] it was more than 64 µg/mL; in data set [6] it was more than 64 µg/mL. For the same compound, the Stability entry in data set [4] is “Stable”.

On to `C[C@]12C[C@@]34C=C/C(=N\c5ccccc5)[C@@](C)(CCC(=O)Nc5c(O)ccc(C(=O)O)c5O)[C@@H]3[C@H](C[C@@H]1C4)O2`, for which the minimum inhibitory concentration (MIC) was 2 µg/mL (≈ 3.87 µM) in data set [1]; 2 µg/mL (≈ 3.87 µM) in data set [2]; 1 µg/mL (≈ 1.94 µM) in data set [3]; more than 64 µg/mL in data set [5]; more than 64 µg/mL in data set [6]. Moreover, the Stability result in data set [4] is listed as “Stable”.

Turning to `C[C@@]1(CCC(=O)Nc2c(O)ccc(C(=O)O)c2O)[C@H](O)CC[C@]23C[C@H]4C[C@H](O[C@@]4(C)C2)[C@H]31`, the MIC in data set [2], in data set [3], in data set [5] and in data set [6] was more than 64 µg/mL each time.

Turning to `CO/N=C1\C=C[C@]23C[C@H]4C[C@H](O[C@@]4(C)C2)[C@H]3[C@]1(C)CCC(=O)Nc1c(O)ccc(C(=O)O)c1O`, the minimal inhibitory concentration (MIC) in data set [2], in data set [3], in data set [5] and in data set [6] was more than 64 µg/mL in each case. Besides, the Stability result in data set [4] was “Stable”.

With `C[C@]12C[C@@]34C=C/C(=N\NC(=O)c5ccccc5)[C@@](C)(CCC(=O)Nc5c(O)ccc(C(=O)O)c5O)[C@@H]3[C@H](C[C@@H]1C4)O2`, the MIC is 32 µg/mL (≈ 57.2 µM) in data set [2], 32 µg/mL (≈ 57.2 µM) in data set [3], more than 64 µg/mL in data set [5] and more than 64 µg/mL in data set [6]. Further, the Stability entry in data set [4] is on record as “Stable”.

`CC(C)(C)c1ccc(C(=O)N/N=C2\C=C[C@]34C[C@H]5C[C@H](O[C@@]5(C)C3)[C@H]4[C@]2(C)CCC(=O)Nc2c(O)ccc(C(=O)O)c2O)cc1`: the MIC in data set [2] was 32 µg/mL (≈ 52 µM); in data set [3] it was 16 µg/mL (≈ 26 µM); in data set [5], more than 64 µg/mL; in data set [6], more than 64 µg/mL.

In the case of `C[C@]12C[C@@]34CCC(=O)[C@@](C)(CCC(=O)Nc5c(O)ccc(C(=O)O)c5O)[C@@H]3[C@H](C[C@@H]1C4)O2`, the MIC is 2 µg/mL (≈ 4.51 µM) in data set [1]; 2 µg/mL (≈ 4.51 µM) in data set [2]; 2 µg/mL (≈ 4.51 µM) in data set [3]; more than 64 µg/mL in data set [5]; more than 64 µg/mL in data set [6].

`CC(=O)NC[C@H]1CN(c2ccc(N3CCOCC3)c(F)c2)C(=O)O1` [LINEZOLID]: the MIC in data set [1], in data set [2] and in data set [3] was 1 µg/mL (≈ 2.96 µM) throughout.

`C[C@]12C[C@@]34C=CC(=O)[C@@](C)(CCC(=O)Nc5c(O)ccc(C(=O)O)c5O)[C@@H]3[C@H](C[C@@H]1C4)O2`: the results for the MIC in data set [1], in data set [2] and in data set [3] were 1 µg/mL (≈ 2.27 µM), 0.5 µg/mL (≈ 1.13 µM) and 0.5 µg/mL (≈ 1.13 µM), respectively.

As for `C[C@]12C[C@@]34C=C/C(=N\NC(=O)Cc5ccccc5)[C@@](C)(CCC(=O)Nc5c(O)ccc(C(=O)O)c5O)[C@@H]3[C@H](C[C@@H]1C4)O2`, the MIC in data set [2] is 8 µg/mL (≈ 13.9 µM); in data set [3], 8 µg/mL (≈ 13.9 µM); in data set [5], more than 64 µg/mL; in data set [6] it was more than 64 µg/mL. Besides, the Stability result in data set [4] is recorded as “Stable”.

On to `COc1ccc(O)c(C(=O)N/N=C2\C=C[C@]34C[C@H]5C[C@H](O[C@@]5(C)C3)[C@H]4[C@]2(C)CCC(=O)Nc2c(O)ccc(C(=O)O)c2O)c1`, for which the values for the MIC in data set [3], in data set [5] and in data set [6] were 16 µg/mL (≈ 26.4 µM), more than 64 µg/mL and more than 64 µg/mL, respectively.

Take `C[C@]12C[C@@]34C=C/C(=N\NC(N)=S)[C@@](C)(CCC(=O)Nc5c(O)ccc(C(=O)O)c5O)[C@@H]3[C@H](C[C@@H]1C4)O2`: the MIC in data set [3] is 16 µg/mL (≈ 31.1 µM); in data set [5], more than 64 µg/mL; in data set [6] it was more than 64 µg/mL.

Regarding `C[C@]12C[C@@]34C=C/C(=N\NC(N)=O)[C@@](C)(CCC(=O)Nc5c(O)ccc(C(=O)O)c5O)[C@@H]3[C@H](C[C@@H]1C4)O2`, the MIC was 8 µg/mL (≈ 16 µM) in data set [3], more than 64 µg/mL in data set [5] and more than 64 µg/mL in data set [6].

As to `C[C@]12C[C@@]34C=C/C(=N\O)[C@@](C)(CCC(=O)Nc5c(O)ccc(C(=O)O)c5O)[C@@H]3[C@H](C[C@@H]1C4)O2`, the MIC in data set [1] was 32 µg/mL (≈ 70.1 µM); in data set [2], 32 µg/mL (≈ 70.1 µM); in data set [3], 16 µg/mL (≈ 35 µM); in data set [5], more than 64 µg/mL; in data set [6] it was more than 64 µg/mL.

Consider `C[C@@]1(CCC(=O)Nc2c(O)ccc(C(=O)O)c2O)[C@H](O)C=C[C@]23C[C@H]4C[C@H](O[C@@]4(C)C2)[C@H]31`, for which the MIC in data set [2], in data set [3], in data set [5] and in data set [6] was more than 64 µg/mL throughout.

Take `CCO/N=C1\C=C[C@]23C[C@H]4C[C@H](O[C@@]4(C)C2)[C@H]3[C@]1(C)CCC(=O)Nc1c(O)ccc(C(=O)O)c1O`: the minimal inhibitory concentration (MIC) in data set [2], in data set [3], in data set [5] and in data set [6] was more than 64 µg/mL in each case.

Take `C[C@]1(CCC(=O)Nc2c(O)ccc(C(=O)O)c2O)[C@@H]2[C@@H]3C[C@@H]4C[C@@]2(CC[C@@H]1O)C[C@]4(C)O3`: the minimum inhibitory concentration (MIC) in data set [2], in data set [3], in data set [5] and in data set [6] was more than 64 µg/mL each time.

`CC(=O)N/N=C1\C=C[C@]23C[C@H]4C[C@H](O[C@@]4(C)C2)[C@H]3[C@]1(C)CCC(=O)Nc1c(O)ccc(C(=O)O)c1O`: the minimum inhibitory concentration (MIC) in data set [5] and in data set [6] was more than 64 µg/mL throughout.

`C[C@]12C[C@]34C[C@H]1C[C@H](O2)[C@H]3[C@](C)(CCC(=O)Nc1c(O)ccc(C(=O)O)c1O)/C(=N/O)C[C@@H]4NO`: the minimum inhibitory concentration (MIC) in data set [1] was 16 µg/mL (≈ 32.7 µM); in data set [2], 16 µg/mL (≈ 32.7 µM); in data set [3], 16 µg/mL (≈ 32.7 µM); in data set [5], more than 64 µg/mL; in data set [6], more than 64 µg/mL.

`C[C@]1(CCC(=O)Nc2c(O)ccc(C(=O)O)c2O)[C@@H]2[C@@H]3C[C@@H]4C[C@@]2(C=C[C@@H]1O)C[C@]4(C)O3`: the minimal inhibitory concentration (MIC) in data set [2], in data set [3], in data set [5] and in data set [6] was more than 64 µg/mL in each case.

In the case of `C[C@]12C[C@@]34C=C/C(=N\NC(=O)c5ccc(O)cc5)[C@@](C)(CCC(=O)Nc5c(O)ccc(C(=O)O)c5O)[C@@H]3[C@H](C[C@@H]1C4)O2`, the minimum inhibitory concentration (MIC) in data set [5] and in data set [6] was more than 64 µg/mL in each case.

By MIC is commonly meant the lowest concentration that inhibits growth of the organism. Lower therefore signals a more susceptible organism.

These data come from ChEMBL document CHEMBL4257508, “The semi-synthesis, biological evaluation and docking analysis of the oxime, hydrazine and hydrazide derivatives of platensimycin” (Medchemcomm, 2018).
